Measurements reported in US8580493B2, “Screening for compounds that modulate GPR3-mediated beta-arrestin signaling and amyloid beta peptide generation” (VIB VZW, priority 2009, dated 2013).

Experiments:
[1] = system: Aβ generation in HEK293 APP695 cells; assay: Aβ1-40 and Aβ1-42 ELISA of culture supernatants after siRNA transfection of HEK293 APP695 cells; type: cell-based; details: HEK293 APP695 cells co-transfected with human GPR3 plasmid, 20 μg siRNA
Text: FIGS. 1A and 1B: Effect of siRNA-mediated β-arrestin depletion on Aβ1-40 (FIG. 1A) and Aβ1-42 (FIG. 1B) generation in HEK293 APP695 cells. Cells were transfected with pcDNA or GPR3, and siRNA targeting β-arrestin 1, 2, both, or a non-silencing (control) RNA duplex prior to measurement of Aβ1-40 (FIG. 1A) and Aβ1-42 (FIG. 1B) secretion in cell culture supernatants by ELISA. The results are expressed as the mean percentage ±SD of three independent experiments performed in duplicate relative to non-silencing siRNA (control).
Chemically synthesized, double-stranded siRNAs targeting β-arrestin 1 or 2 with 19-nucleotide duplex RNA and 2-nucleotide 3′-dTdT overhangs containing fluorescent tags to determine transfection efficiency were purchased from Qiagen. The sequences of the siRNA have been previously described (Ahn et al. 2003; 2004; see also Table 1). As a control, non-silencing siRNA with the sequence 5′-[…]-3′ (SEQ ID NO:10) was used in the experiment. […]
To directly determine the requirement of β-arrestin 1 or 2 for constitutive and GPR3-mediated Aβ generation, Aβ levels were measured in HEK293 APP695 cells following transfection with siRNA that specifically targets either β-arrestin 1 or 2 or both. β-arrestin 2 siRNA reduced constitutive Aβ1-40 and Aβ1-42 generation. […]

[2] = system: β-arrestin 2 recruitment to GPR3; assay: PathHunter β-arrestin assay after siRNA transfection of the CHO GPR3 β-arrestin 2 cell line; type: cell-based, Chinese hamster; details: PathHunter CHO GPR3 β-arrestin 2 cells, 20 μg siRNA, FIG. 5
Text: A modified β-galactosidase complementation assay, referred to as PathHunter™ technology, is another preferred assay method (Olson and Eglen 2007). The principle of the assay is the detection of an interaction between GPR3 and β-arrestin following receptor activation. The assay is unique because it provides a direct measure of β-arrestin binding, whereas imaging assays detect the movement of β-arrestin. […] The assay makes use of a low affinity peptide derived from the amino-terminus of Escherichia coli β-galactosidase, which is tethered to the carboxy-terminus of GPR3 (ProLink™ tag), and a w-deletion mutant of β-galactosidase, which is fused to β-arrestin (enzyme acceptor or EA). The use of the low-affinity ProLink™ peptide ensures that the enzyme fragment complementation (EFC) reaction is driven by the receptor-stimulated, reversible interaction of GPR3 with β-arrestin and not by β-galactosidase complementation in the absence of receptor stimulation. Thus, complementation between β-arrestin and GPR3 results in the formation of a functional enzyme that is capable of hydrolyzing a substrate and generating a chemiluminescent signal. Given the finding that β-arrestin modulates Aβ release, the PathHunter™ β-arrestin assay would facilitate the identification of potential allosteric modulators of Aβ generation. […]

[3] = system: Aβ generation in CHO/β-arrestin 2/GPR3 cells; assay: Aβ1-40 and Aβ1-42 ELISA of culture supernatants after siRNA transfection of CHO/β-arrestin 2/GPR3 cells; type: cell-based, Chinese hamster; details: 20 μg siRNA, FIG. 6
Text: Chemically synthesized, double-stranded siRNAs targeting β-arrestin 1 or 2 with 19-nucleotide duplex RNA and 2-nucleotide 3′-dTdT overhangs containing fluorescent tags to determine transfection efficiency were purchased from Qiagen. The sequences of the siRNA have been previously described (Aim et al. 2003; 2004; see also Table 1). As a control, non-silencing siRNA with the sequence 5′-[…]-3′ (SEQ ID NO:10) was used in the experiment. The PathHunter™ Chinese hamster ovary (CHO) GPR3 β-arrestin 2 cell line, which stably expresses GPR3 and β-arrestin 2, was transfected with 20 μg of siRNA using the GeneSilencer Transfection reagent (Genlantis) as previously described by Aim et al. (2003). Forty-eight hours following transfection, cells were divided into six-well and 96-well plates for further experiments. Twenty-four hours after plating, cells were placed in serum-free medium for an additional 24 hours. The PathHunter™ β-arrestin assay was performed on the cells in the 96-well plate to determine the extent of β-arrestin 2 recruitment to GPR3 following a reduction in the expression of β-arrestin 1 or β-arrestin 2.
Culture supernatant samples were collected from cells seeded in the six-well plates to determine the effect of a reduction in β-arrestin 2 recruitment to GPR3 on Aβ1-40 and Aβ1-42 generation. […]

5′-AAAGCCUUCUGCGCGGAGAAU-3′ [β-arrestin 1 siRNA]
Aβ1-40 generation with GPR3 co-transfection ([1]; FIG. 1A): further reduction
Aβ1-42 generation with GPR3 co-transfection ([1]; FIG. 1B): further reduction
β-arrestin 2 recruitment to GPR3 (chemiluminescent signal) [2]: clear increase
Aβ1-40 generation [3]: did not affect
Aβ1-42 generation [3]: modestly stimulated
